# Experimental data from publication PMC8297771 (PLoS Pathogens, 2021).
# Columns and labels:
# [1] = tested on: Ral-resistant (8070_2) clinical isolate; test: In vitro anti-viral assay in human PBMCs (RT activity readout); assay type: cell-based, HIV-1
# Description: For the assay with human PBMCs, PHA stimulated cells from at least two pooled healthy were infected with HIV-1 strains in 96-well plates. Test drug dilutions, which were prepared at a 2X concentration in microtiter tubes and 100 μL of each concentration (nine total concentrations), were placed in appropriate wells using the standard format. 50 μL of a predetermined dilution of virus stock was placed in each test well (final MOI ≅ 0.1). The PBMC cultures were maintained for 7 days following infection at 37 °C, 5% CO2. After this period, cell-free supernatant samples were collected for analysis of reverse transcriptase (RT) activity. All assays were conducted in triplicates. For RT assay, a microtiter plate-based reverse transcriptase (RT) reaction was utilized (Buckheit et al., AIDS Research and Human Retroviruses 7:295–302, 1991). Tritiated thymidine triphosphate (^3H-TTP, 80 Ci/mmol, NEN) is received in 1:1 dH2O: Ethanol at 1 mCi/mL. Poly rA:oligo dT template:primer (GE Healthcare) was prepared as a stock solution by combining 150 μL poly rA (20 mg/mL) with 0.5 mL oligo dT (20 units/mL) and 5.35 mL sterile dH2O followed by aliquoting (1.0 mL) and storage at—20°C. The RT reaction buffer was prepared fresh on a daily basis and consisted of 125 μL 1.0 M EGTA, 125 μL dH2O, 125 μL 20% Triton X100, 50 μL 1.0 M Tris (pH 7.4), 50 μL 1.0 M DTT, and 40 μL 1.0 M MgCl2. The final reaction mixture was prepared by combining 1 part ^3H-TTP, 4 parts dH2O, 2.5 parts poly rA:oligo dT stock and 2.5 parts reaction buffer. Ten microliters of this reaction mixture were placed in a round bottom microtiter plate and 15 μL of virus containing supernatant is added and mixed. The plate was incubated at 37°C for 60 mins. Following incubation, the reaction volume was spotted onto DE81 filter-mats (Wallac), washed 5 times for 5 mins each in a 5% sodium phosphate buffer or 2X SSC (Life Technologies). Next they were washed 2 times for 1 min each in distilled water, 2 times for 1 min each in 70% ethanol, and then dried. Incorporated radioactivity (counts per min, CPM) was quantified using standard liquid scintillation techniques. These PBMC analysis was conducted by fee to service through Southern Research Institute (Frederick, MD, USA). The IC50 were analyzed using GraphPad Prism (Version 9) and presented as means ± S.D. of the triplicates.
# [2] = tested on: HIV-1 GFP vector produced from treated 293T cells, transduced into Jurkat cells; test: HIV-1 inhibition in producing cells (late stage); assay type: cell-based; details: 60 nM in 293T producing cells; GFP by FACS in Jurkat cells
# Description: To test for STP0404’s inhibitory effects during the late stage of HIV-1 life cycle such as the maturation step, we employed the “producing cells” setup. In T75 tissue culture flasks, 293T cells were pre-treated with and without STP0404 (0 and 60 nM) for 2 hrs prior to transfection with pD3-HIV (13 μg) and pVSV-g (6 μg), using 0.3 mg/ml polyethylenimine. After 24 hrs incubation at 37°C, the supernatant was removed and replaced with fresh media with and without STP0404 (0 and 60 nM). 48 hrs later, D3-HIV vector from each treatment group was concentrated from the collected supernatant via ultracentrifugation (22,000 rpm for 2 hrs). Following p24 quantification, using 96-well plates, similar amount of respective D3-HIV vector was used to transduce Jurkat cells in triplicates for 48 hrs. The cells were harvested and fixed with 3.7% formaldehyde before being analyzed for GFP expression using FACS (Miltenyi Biotec, VYB). Separately, the “infecting cells” setup was used to investigate the inhibitory effects of STP0404 against the early stages of HIV-1 life cycle such as the integration and transcription steps. […] All data were analyzed using GraphPad Prism (Version 9). Unpaired t tests were performed to determine the significance of the readings in respective experimental set up relative to the untreated controls. […]
# [3] = Plasma protein binding (equilibrium dialysis); assay type: in vitro ADME; details: Sprague-Dawley (rat), beagle (dog), cynomolgus monkey, pH 7.4, monkey and human plasma, read-out: In vitro protein binding
# Description: The current study utilized the 96-well equilibrium dialysis device purchased from HTDialysis to dialyze the test compound and the control compound at 2 μM in plasma at 37±1°C for 4 hrs. Plasma prepared from Sprague-Dawley rats, beagle dog, cynomolgus monkey and humans were previously frozen at below -60°C. The dialysis membrane strips were soaked in ultra-pure water at room temperature for approximately 1 hr. After that, each membrane strip that contains 2 membranes was separated and soaked in ethanol:water (20,80 v,v) for approximately 20 mins, after which it was ready for use or was stored in the solution at 2–8°C for up to a month. Prior to the experiment, the membrane was rinsed and soaked for 20 mins in ultra-pure water. On the day of experiment, the plasma from Sprague-Dawley rats, beagle dogs, cynomolgus monkey and humans was thawed under running cold tap water and centrifuged at 3220×g for 5 mins to remove any clots and the pH value of the resulting plasma will be checked. if required, adjusted to 7.4 ± 0.1. All samples were further processed by protein precipitation for LC/MS/MS analysis (Wuxi AppTec, China).
# CHL/IU cells = test: Chromosomal aberration test in cultured mammalian cells (GLP); assay type: cell-based; details: 25~140 μg/mL
# Description: Bacterial reverse mutation assay (Study no. YL18407). The bacterial reverse mutation assay of STP0404 was performed in two conditions (with or without metabolic activation) for the dose range-finding test (doses of STP0404rangingfrom 2.29 to 5,000μg/plate) and the main test (doses of STP0404 ranging from 19.5 to 5,000 μg/plate) in comparison with negative control (DMSO) and active controls (sodium azide, 2-(2-furyl)-3-(5-nitro-2-furyl) acrylamide, 2-aminoanthracene, 9-aminoacridine hydrochloride). Salmonella typhimurium (TA100, TA1535) and Escherichia coli (WP2uvrA) were used for detection of base-pair substitutions. Salmonella typhimurium (TA98, TA1537) was used for detection of frameshift mutations. Chromosomal Aberration Test of STP0404 in Cultured Mammalian Cells (Study no. YL18408). Presence/absence of genotoxicity of STP0404 was determined using chromosomal aberration test carried out in CHL/IU cells. The test comprised a dose range-finding test and a main test. Micronucleus Study of STP0404 by oral administration in Rats (Study no. YL18409). STP0404 was administered orally to SD rats (3/group in preliminary test and 6/group in the main test) at dose levels of 500, 1000 and 2000 mg/kg/day once daily for 2 days in a two-test study (preliminary test and main test) to investigate the genotoxicity profile of STP0404. […] Bone marrow smear slides were evaluated (INA Research, Japan).
compound,measurement,setting,value
Cc1nc2c(c(C)c(C)n2Cc2cnn(C)c2)c(-c2ccc(Cl)cc2)c1[C@H](OC(C)(C)C)C(=O)O [STP0404],TI (TC50 / IC50),[1],">43,400"
same,IC50,"[1]; Human immunodeficiency virus 1, PBMC",0.23 ± 0.39 nM
same,"transduction efficiency, producing cells",[2],significantly reduced transduction efficiency
same,"fraction unbound at 4 h, 2 μM",[3],0.003 to 0.061
same,chromosomal aberration-inducing potential,CHL/IU cells,lacked
